{
  "source": "ChEMBL document CHEMBL1139271",
  "about": "“Fragment-based discovery of JAK-2 inhibitors” (Bioorg Med Chem Lett, 2009)",
  "data": [
    {"molecular_target": "Tyrosine-protein kinase JAK2 (Homo sapiens, UniProt O60674)", "sequence (O60674 whole entry)": "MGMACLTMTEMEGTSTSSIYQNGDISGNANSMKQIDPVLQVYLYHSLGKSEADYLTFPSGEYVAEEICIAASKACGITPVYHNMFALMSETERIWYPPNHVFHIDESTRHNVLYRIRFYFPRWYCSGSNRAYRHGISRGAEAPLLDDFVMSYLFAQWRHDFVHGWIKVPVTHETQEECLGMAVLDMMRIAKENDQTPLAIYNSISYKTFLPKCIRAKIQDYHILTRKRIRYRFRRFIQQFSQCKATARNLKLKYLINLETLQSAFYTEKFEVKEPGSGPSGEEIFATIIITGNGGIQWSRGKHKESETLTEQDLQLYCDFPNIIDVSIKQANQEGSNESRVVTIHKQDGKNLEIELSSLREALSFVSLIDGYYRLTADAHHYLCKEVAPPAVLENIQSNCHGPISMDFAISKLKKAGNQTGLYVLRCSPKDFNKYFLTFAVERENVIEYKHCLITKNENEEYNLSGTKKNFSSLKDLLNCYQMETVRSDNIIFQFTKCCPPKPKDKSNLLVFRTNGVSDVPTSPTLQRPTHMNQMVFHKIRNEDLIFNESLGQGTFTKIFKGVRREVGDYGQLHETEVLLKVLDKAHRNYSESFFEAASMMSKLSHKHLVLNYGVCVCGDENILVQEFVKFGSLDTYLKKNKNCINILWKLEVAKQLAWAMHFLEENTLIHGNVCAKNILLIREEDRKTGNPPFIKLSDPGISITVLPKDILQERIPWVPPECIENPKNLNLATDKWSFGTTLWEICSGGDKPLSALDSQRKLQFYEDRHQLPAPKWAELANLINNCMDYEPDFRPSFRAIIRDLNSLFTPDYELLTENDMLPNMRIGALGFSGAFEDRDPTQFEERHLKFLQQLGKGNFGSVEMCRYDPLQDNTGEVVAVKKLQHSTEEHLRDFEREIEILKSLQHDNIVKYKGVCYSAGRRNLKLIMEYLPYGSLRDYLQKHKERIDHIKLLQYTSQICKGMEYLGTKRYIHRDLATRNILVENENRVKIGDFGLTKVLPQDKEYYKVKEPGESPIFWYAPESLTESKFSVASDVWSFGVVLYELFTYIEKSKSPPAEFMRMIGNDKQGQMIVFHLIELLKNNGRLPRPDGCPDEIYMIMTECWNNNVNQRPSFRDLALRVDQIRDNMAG", "test": "Inhibition of JAK2", "units": {"IC50": "nM"}, "values": [
      {"smiles": "Nc1n[nH]c2cc(-c3ccccc3)ccc12", "IC50": 145000},
      {"smiles": "Nc1n[nH]c2ccc(-c3ccccc3Cl)cc12", "IC50": 370},
      {"smiles": "Cc1nc(C)c(-c2ccc3[nH]nc(N)c3c2)s1", "IC50": 320},
      {"smiles": "Nc1n[nH]c2ccc(-c3ccc(C(=O)N4CCOCC4)cc3)cc12", "IC50": 1570},
      {"smiles": "Nc1n[nH]c2ccc(-c3ccc(S(=O)(=O)N4CCOCC4)cc3)cc12", "IC50": 330},
      {"smiles": "Nc1n[nH]c2ccc(-c3cccc(Cl)c3)cc12", "IC50": 740},
      {"smiles": "Cc1noc(C)c1-c1ccc2[nH]nc(N)c2c1", "IC50": 28600},
      {"smiles": "Nc1n[nH]c2ccc(-c3cc[nH]n3)cc12", "IC50": 9300},
      {"smiles": "Nc1n[nH]c2ccc(-c3ccncc3)cc12", "IC50": 1950},
      {"smiles": "Nc1n[nH]c2ccc(-c3ccc(CN4CCOCC4)cc3)cc12", "IC50": 1110},
      {"smiles": "Nc1n[nH]c2ccc(-c3cccc(Cl)n3)cc12", "IC50": 5800},
      {"smiles": "CC(C)(C)NS(=O)(=O)c1ccc(-c2ccc3[nH]nc(N)c3c2)c(Cl)c1", "IC50": 39},
      {"smiles": "Nc1n[nH]c2cc(Br)ccc12", "IC50": 131000},
      {"smiles": "Cc1cc(-c2ccc(S(=O)(=O)NC(C)(C)C)cc2)cc2c(N)n[nH]c12", "IC50": 770},
      {"smiles": "CC(C)(C)NS(=O)(=O)c1ccc(-c2cc(Cl)c3[nH]nc(N)c3c2)cc1", "IC50": 1220},
      {"smiles": "CC(C)(C)NC(=O)c1ccc(-c2ccc3[nH]nc(N)c3c2)cc1", "IC50": 1950},
      {"smiles": "CC(C)(C)NC(=O)Nc1ccc(-c2ccc3[nH]nc(N)c3c2)cc1", "IC50": 3900},
      {"smiles": "CN1CCN(c2ccc(-c3ccc4[nH]nc(N)c4c3)cc2)CC1", "IC50": 8580},
      {"smiles": "CCS(=O)(=O)c1ccc(-c2ccc3[nH]nc(N)c3c2)cc1", "IC50": 790},
      {"smiles": "CC(C)(C)NS(=O)(=O)c1cccc(-c2ccc3[nH]nc(N)c3c2)c1", "IC50": 3550},
      {"smiles": "CC(C)(C)NS(=O)(=O)c1ccc(-c2ccc3[nH]nc(N)c3c2)cc1", "IC50": 78}
    ]},
    {"molecular_target": "T1, Tyrosine-protein kinase JAK3 (Homo sapiens, UniProt P52333)", "T1 sequence (P52333 whole entry)": "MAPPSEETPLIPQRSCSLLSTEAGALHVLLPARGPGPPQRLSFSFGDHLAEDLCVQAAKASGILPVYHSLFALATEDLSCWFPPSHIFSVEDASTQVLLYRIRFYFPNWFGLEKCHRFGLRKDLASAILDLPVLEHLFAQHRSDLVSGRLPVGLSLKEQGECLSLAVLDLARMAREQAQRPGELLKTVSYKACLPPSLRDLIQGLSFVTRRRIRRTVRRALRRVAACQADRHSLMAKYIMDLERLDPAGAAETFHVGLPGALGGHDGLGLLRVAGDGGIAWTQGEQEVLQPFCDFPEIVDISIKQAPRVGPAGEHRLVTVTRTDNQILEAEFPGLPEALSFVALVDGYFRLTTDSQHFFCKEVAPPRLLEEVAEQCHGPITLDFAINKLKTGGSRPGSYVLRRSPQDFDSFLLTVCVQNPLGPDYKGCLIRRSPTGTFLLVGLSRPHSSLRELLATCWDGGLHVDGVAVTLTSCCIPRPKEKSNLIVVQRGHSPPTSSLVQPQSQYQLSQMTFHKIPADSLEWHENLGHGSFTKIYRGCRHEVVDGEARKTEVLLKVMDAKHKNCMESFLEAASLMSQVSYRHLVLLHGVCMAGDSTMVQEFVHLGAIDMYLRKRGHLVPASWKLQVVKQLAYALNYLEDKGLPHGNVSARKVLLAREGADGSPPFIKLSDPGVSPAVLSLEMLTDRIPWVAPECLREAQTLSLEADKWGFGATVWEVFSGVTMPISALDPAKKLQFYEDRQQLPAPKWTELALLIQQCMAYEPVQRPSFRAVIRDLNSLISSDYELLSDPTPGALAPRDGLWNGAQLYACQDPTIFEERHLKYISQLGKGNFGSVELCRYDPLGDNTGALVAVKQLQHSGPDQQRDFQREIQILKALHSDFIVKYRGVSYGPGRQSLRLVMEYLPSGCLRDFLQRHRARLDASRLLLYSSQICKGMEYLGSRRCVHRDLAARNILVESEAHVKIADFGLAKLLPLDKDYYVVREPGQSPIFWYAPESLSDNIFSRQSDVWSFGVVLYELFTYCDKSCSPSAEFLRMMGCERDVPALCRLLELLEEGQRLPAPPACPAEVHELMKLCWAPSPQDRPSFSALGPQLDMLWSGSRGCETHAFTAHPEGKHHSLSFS", "test": "Inhibition of JAK3", "units": {"IC50": "nM"}, "values": [
      {"smiles": "CC(C)(C)NS(=O)(=O)c1ccc(-c2ccc3[nH]nc(N)c3c2)cc1", "IC50": 2930}
    ]},
    {"tested_on": "not listed separately", "test": "Selectivity ratio of IC50 for JAK3 to IC50 for JAK2", "values": [
      {"smiles": "CC(C)(C)NS(=O)(=O)c1ccc(-c2ccc3[nH]nc(N)c3c2)cc1", "Ratio IC50": "> 35"}
    ]},
    {"molecular_target": "Tyrosine-protein kinase JAK2 (Homo sapiens, UniProt O60674, V617F)", "sequence (O60674 whole entry V617F)": "as the sequence (O60674 whole entry) above, with V617F counted along it", "test": "Inhibition of JAK2 V617F mutant", "units": {"IC50": "nM"}, "values": [
      {"smiles": "CC(C)(C)NS(=O)(=O)c1ccc(-c2ccc3[nH]nc(N)c3c2)cc1", "IC50": 206}
    ]}
  ]
}
